Laboratory results as given in publication PMC11562385 (RSC Chemical Biology, 2024).
Entries after “also recorded” stand apart in the source; their conditions may differ. Peptide text beside a SMILES is read from it.

How the values were obtained:
PD1:PDL1 interaction [1] = target: T1, PD1:PDL1 interaction (Homo sapiens, UniProt Q15116); experiment: PD1/PDL1 immunoblocking ELISA (BPS Bioscience kit cat # 72005); format: binding
T1 construct: purchased BPS Bioscience 72005

PD1:PDL1 interaction [2] = target: T1, PD1:PDL1 interaction; experiment: Time-course competitive inhibition of PD1:PDL1 under saturating PDL1 (1:12); format: binding; conditions: inhibitor preincubated, 3 μM; PD1:PDL1 1:12; two hours; n = 4
Method: Time-course experiments were repeated by preincubating the non-covalent inhibitor 2c in one case, or the covalent ADAPTins2ca and 2cb at the same concentration.

N-deglycosylated PD1 = experiment: SDS-PAGE analysis of covalent conjugation to N-deglycosylated PD1; format: biochemical; conditions: N-deglycosylated PD1, 12 h, 37 °C, pH 6.5, peptide/protein 4:1 to 16:1
h-PBMCs = experiment: Ex vivo cytokine secretion assay, healthy PBMCs; format: cell-based, human; conditions: h-PBMCs reactivated with anti-CD2/28, 6 h incubation, n = 3
Method: (§1) Then, an ex vivo immune cell culture system using h-PBMCs and exhausted PBMCs from a melanoma patient (e-PBMCs) was used to determine the efficacy of selected ADAPTin peptides on T-effector cells (Fig. 6).[91,92] T-cell exhaustion typically leads to a reduction in cytokine release, cytotoxic activity, as well as slower T-cell proliferation. […] Cytokines concentrations measured at 72 h post-treatment were in most cases over the detection limit range further indicating the effectiveness of our compounds over time.
(§2) Non-covalent ADAPTin2c/2p were used as negative control. (A) Levels of inflammatory cytokines measured by flow-cytometry (FACS) after 6 h incubation with electrophilic ADAPTins. Error bars indicate the mean ± SD, (n = 3). (B) Rescue of exhausted PBMCs from a melanoma patient. Levels of inflammatory cytokines and granule-associated proteins released (6 h) measured by FACS (healthy and untreated exhausted PBMCs: h-/e-PBMCs used as positive and negative controls respectively). Error bars indicate the avg ± SD, (n = 2).
(§3) Ex Vivo Cytokine Secretion Assay.
Normal PBMCs (from healthy donor) and exhausted PBMCs isolated from the blood sample of a melanoma patient were activated for 48 h before using anti-CD2/28 monoclonal antibodies with IL-2 (2 ng/mL) as mentioned above. […] Samples were transferred to a 96-well plate to read on a flow cytometer. […]

e-PBMCs = experiment: Ex vivo cytokine secretion assay, exhausted PBMCs from a melanoma patient; format: cell-based, human; conditions: e-PBMC, 6 h, LEGENDplex
Method: as §1, §2, §3
Normal PBMCs (from healthy donor) and exhausted PBMCs isolated from the blood sample of a melanoma patient were activated for 48 h before using anti-CD2/28 monoclonal antibodies with IL-2 (2 ng/mL) as mentioned above. After 48 h, PBMCs were washed and incubated with a series of ADAPTins for 6 h. After treatment, media supernatant was collected for cytokine release measurements using the LEGENDplex™ human CD8/NK (13-plex) panel (BioLegend, cat no. 740267). Briefly, samples were mixed with assay buffer and human (13-plex) mixed-beads and plated on the 96-well filter plate. Samples were incubated for 2 h at room temperature, washed, and resuspended beads with detection antibodies according to manufacturer's protocol. Samples were transferred to a 96-well plate to read on a flow cytometer. The flow cytometer and data acquisition software setting were used according to the manufacturer's instructions. Flow analysis was obtained using a CytoFLEX-S flow cytometer equipped with 3 lasers (488 nm blue, 405 nm violet, and 638 nm from Beckman).
Table S9. Raw data of cytokine secretion assay (n=2).
Cytokine assay IL-2 TNF-α IFN-γ Perforin […]

PD1:PDL1 interaction [3] = conditions: read-out: apparent Ki, PD1:PDL1 interaction; cited from earlier work
From the text: While downsizing a full antibody drug into a single CDR-H3 “hot loop”, one should anticipate a significant loss in binding affinity and specificity. […] The PD1 ...

T1 sequence (Q15116 25-167 limits assumed): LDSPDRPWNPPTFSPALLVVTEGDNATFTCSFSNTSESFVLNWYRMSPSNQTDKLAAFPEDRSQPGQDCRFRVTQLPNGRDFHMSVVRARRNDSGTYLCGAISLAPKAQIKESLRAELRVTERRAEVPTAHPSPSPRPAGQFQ

For `CSCC[C@H](NC(=O)[C@H](CC(=O)O)NC(=O)[C@H](Cc1ccccc1)NC(=O)[C@H](CCCNC(=N)N)NC(=O)[C@H](Cc1ccc(O)cc1)NC(=O)[C@H](CC(=O)O)NC(=O)[C@H](CCCNC(=N)N)NC(=O)[C@H](CCCNC(=N)N)NC(=O)[C@H](C)NC(=O)[C@@H](NC(=O)[C@H](Cc1c[nH]c2ccccc12)NC(=O)[C@@H](N)CCCNC(=N)N)C(C)C)C(=O)NCC(=O)N[C@@H](Cc1ccccc1)C(=O)N[C@@H](CC(=O)O)C(=O)N[C@@H](Cc1ccc(O)cc1)C(=O)N[C@@H](Cc1c[nH]c2ccccc12)C(=O)N[C@H](C(=O)N[C@@H](Cc1c[nH]c2ccccc12)C(=O)N[C@@H](CCC(=O)O)C(=O)O)C(C)C` [2c] (H-RWVARRDYRFDMGFDYWVWE-OH), the EC50 (PD1:PDL1 interaction [1]; ELISA, mean of three independent experiments, read-out: EC50 Value) was 249 nM, the “LE (ligand efficiency)” value (PD1:PDL1 interaction [1]; LE = -RTln(EC50)/HA, HA = non-hydrogen atoms omitting the strap (RWV•••VWE)) was 0.07 and the “outcome of time-course competition with excess PDL1” value (PD1:PDL1 interaction [2]) was “fully displaced by PDL1; also recorded: easily displaced”. For the same compound, the “covalent conjugation to PD1 on SDS-PAGE (in words)” value (N-deglycosylated PD1) was “No conjugation observed”, the “increase in TNF-α, IFN-γ and perforin levels” value (h-PBMCs) was “no detectable activity” and the IFN-γ (e-PBMCs; replicate 1) was 4131.52 pg/mL. The IL-2 (e-PBMCs; replicate 1) was 0.44 pg/mL, the Perforin (e-PBMCs; replicate 1) was 217.39 pg/mL and the TNF-α (e-PBMCs; replicate 1) was 483.47 pg/mL. For the same compound, the IFN-γ (e-PBMCs; replicate 2) was 7535.05 pg/mL, the IL-2 (e-PBMCs; replicate 2) was 266.63 pg/mL and the Perforin (e-PBMCs; replicate 2) was 381.31 pg/mL. The TNF-α (e-PBMCs; replicate 2) was 1150.47 pg/mL and the Ki (PD1:PDL1 interaction [3]) was 41 nM.
